Assays:
[1] = tested on: protein kinase M; test: Activity of the catalytic domain (protein kinase M); format: biochemical, rat
Experimental: Under these conditions, the bulk concentration of PS was 260 μM and diC18:1 was 86 μM. Therefore, 50% inhibition (100 μM) occurred on a molar basis equivalent to [diC18:1 ] or to 0.4 of [PS]. The potency of sphingosine inhibition was markedly affected by the number of Triton X-100 mixed micelles containing 7 mol % PS and 1 mol % diC18:1present in the assay (FIG. 11A). Thus, the effect of sphingosine was subject to surface dilution. When the data are expressed as mol %, (sphingosine:Triton X-100), sphingosine inhibition at four different levels of Triton X-100 mixed micelles (containing PS and diC18:1) was identical (FIG. 11B) implying that it is the number of sphingosine molecules present in each mixed micelle that determines the potency and not the absolute concentration. For surface active amphipathic molecules, the expression of inhibitor potencies must be relative to the amount of surface (micelles in this case) as bulk concentrations are misleading. […] To test this hypothesis, the catalytic domain (protein kinase M) was generated by proteolysis of protein kinase C^2. The activity of this catalytic domain which is independent of Ca^2+, phospholipid and DAG/phorbol esters was not inhibited by sphingosine (FIG. 10).
^2 The catalytic domain was generated by trypsin treatment of purified protein kinase C; and purified by Ultrogel AcA-44 molecular sieve chromatography. […]

[2] = target: protein kinase C; test: Mixed micellar protein kinase C activity assay for lysosphingolipids (Table VI); format: biochemical
Experimental: (§1) TABLE VI: Inhibition of protein kinase C activity and phorbol-dibutyrate binding by lysosphingolipids. […] The remaining two columns show the observed effects of the lysosphingolipids of protein kinase C activity and phorbol diester binding in vitro and in human platelets. Lysogangliosides were prepared from their parental gangliosides by hydrolysis in methanolic KOH esentially as described by Neuenhofer et al. in Bioch. 24, 525, 1985. During this preparation, with approximately 90-95% conversion, the N-acetate of N-acetylneuraminic acid is partially hydrolyzed. Fatty acids were partitioned into heptane after acidification of the methanolic reaction mixture. Galactosylsphingosine, glucosylsphingosine, and lactosylsphingosine were prepared as previously described for galactosylsphingosine (Radin, Lipids 9, 358, 1974) Sphingosylphosphorylcholine was prepared by hydrolysis in HCl-butanol (Kaller, Biochemische Zeitschrift 334, 451, 1961). The purity of the lyso derivatives (greater than 90%) was checked by thin layer chromatography (TLC) on silica gel H plates developed in chloroform/methanol/2N NH4 OH (65/35/9) and visualized by ninhydrin reaction for N-lyso compounds, by α-naphthol/sulfuric acid for both gangliosides and lysogangliosides,and by a phospholipid spray for sphingosylphosphorylcholine. Lysosphingolipids were quantitated by reaction of the amine group with trinitrobenzenesulfonate. Gangliosides and lysosphingolipids were also quantitated by reaction with anthrone. The lysosphingolipids were then studied for their effect on protein kinase C activity. Protein kinase C was purified to near homogeneity by the method of Wolf et al. (J. Biol. Chem. 260, 15718, 1985), and activity was measured using a mixed micellar assay (described herein). Lysosphingolipids were added directly in aqueous solution, and allowed to equilibrate with the Triton X-100 (0.3% w/v) mixed micelles containing 6 mol % phosphatidylserine and 2 mol % dioleoylglycerol. […] Phorbol-dibutyrate binding was measured in a mixed micellar assay. Lysosphingolipids inhibited phorbol-dibutyrate binding to protein kinase C in the presence of Triton X-100 mixed micelles containing 20 mol % phosphatidylserine. […] The difference is related to the higher concentration of phosphatidylserine used in the binding assay, as both activity and binding show a high cooperative dependence on phosphatidylserine, which modulates the inhibition by lysosphingolipids. Phorbol-dibutyrate binding to human platelets and 40 kDa phosphorylation in platelets were carried out as described above. Lysosphingolipids inhibited phorbol dibutyrate binding to human platelets at concentrations in the 10-50 μM range. Inhibition of 40 kDa phosphorylation occurred over the same concentration range.

[3] = target: protein kinase C; test: Phorbol-dibutyrate binding to protein kinase C, mixed micellar assay (Table VI); details: Triton X-100 mixed micelles, 20 mol % phosphatidylserine
Experimental: as §1

[4] = tested on: human neutrophils; test: Superoxide production by neutrophils (cytochrome c reduction); format: cell-based; details: Neutrophil, approximately 5×10^5 cells/ml, all activators, read-out: concentration for 50% inhibition of superoxide production
Experimental: Superoxide production by cells was quantitated from superoxide-mediated reduction of cytochrome c, monitored as an increase in absorbance at 550 nm and an extinction coefficient at 21,000 M^-1 cm^-1. Measurements were carried out at 37° C. using approximately 5×10^5 neutrophils per ml, stirred continuously. The cells were allowed to equilibrate several minutes prior to the addition of effectors. Conditions for individual experiments are described in figure legends and tables. Controls utilizing added superoxide dismutase verified that the cytochrome c reduction was mediated by superoxide.

[5] = tested on: human neutrophils; test: Phagocytosis of opsonized latex particles by neutrophils; format: cell-based; details: 40 μM sphinganine, ± S.E.M.
Experimental: Latex particles were opsonized by incubating at 37° C. 1 ml of particles with 0.2 ml of human serum plus 1 ml Tris buffer, pH 8.5. […] The reaction was terminated by the addition of 0.4 ml of ice-cold buffer containing 1 mM EDTA. […] Cells are sedimented, while excess beads remain at the ficoll-saline interface. The number of latex beads internalized per cell was determined by microscopic examination.

[6] = tested on: human neutrophils; test: [32P]-phosphate incorporation into TCA-precipitable material of neutrophils; format: cell-based
Experimental: Neutrophils (1.4×10^8 cells) were preincubated in with 0.5 mCi Na2 H^32 PO4 in buffer containing […] NaCl, 5.56 mM glucose, 10 mM Hepes, and 0.33 mM CaCl2 for a total of 1 hr at 37° C. in a shaking waterbath. Excess unbound counts were removed by centrifugation and resuspension, repeated five times. The cells were then divided into 4 treatment groups (see RESULTS below) containing approximately 3.5×10^7 cells each. All groups were incubated at 37° C. in a shaking waterbath for the same total time. Some samples were incubated 10 min. with sphinganine (40 μM) prior to addition of 1 μM PMA (final concentration), with which they were incubated for an additional 15 min. The reaction was stopped by addition of an equal volume of boiling SDS dissociation buffer (9% SDS, 1% mercaptoethanol, 15% glycerol, 30 mM Tris, pH 7.8). The samples were run on a 12% SDS-polyacrylamide gel using the method of Rudolph and Krueger (Adv. Cyclic Nucleotide Res. 101, 107-133, 1979). The gels were dried using a Bio-Rad model 2400 Gel Slab Dryer. Autoradiography was performed on the dried gels using Kodak X-omat X-ray film and Dupont Cronex intensifying screens. The gels were exposed for 12 hrs at -70° C.
Alternatively, neutrophils were preincubated as described above using 0.1 mCi of ^32 P labeled phosphate. The cells were broken by 5 min. of sonication using an Ultramet III waterbath sonicator, and 5% (final concentration) trichloroacetic acid was added to each sample. […] The precipitate was filtered and washed extensively using an Amicon filtration system and counted using a Beckman LS7000 scintillation counter.

Q: `CCCCCCCCCCCCC/C=C/[C@@H](O)[C@@H](N)CO` [sphingosine] was tested. Which “inhibition of the catalytic domain (protein kinase M)” value [1] did it give?
A: not inhibited

Q: And the “Inhibition of Protein Kinase C, concentration giving 50% inhibition, (mol %)” value ([2]; 0.3% Triton X-100, 1 mol % = 43 μM)?
A: 1.9 mol %

Q: What about the IC50 ([2]; 0.3% Triton X-100 mixed micelles, 6 mol % phosphatidylserine, 2 mol % dioleoylglycerol, read-out: Inhibition of Protein Kinase C, concentration giving 50% inhibition) of the same compound?
A: 80 µM

Q: What about the “Inhibition of [3H]PDBu Binding to Protein Kinase, (mol %)” value [3] of the same compound?
A: 9.3 mol %

Q: What about the IC50 ([3]; read-out: Inhibition of [3H]PDBu Binding to Protein Kinase) of the same compound?
A: 400 µM

Q: With `CCCCCCCCCCCCCCC[C@@H](O)[C@@H](N)CO` (relative stereo) [Sphinganine, erythro-dihydrosphingosine] as the compound, how does the IC50 [4] read?
A: ~1 µM

Q: And the “ingested latex beads per cell” value [5]?
A: 7.2±0.8 beads/cell

Q: And the “[32P]-phosphate incorporation into TCA-precipitable material” value ([6]; PMA (1 μM) plus Sa (25 μM))?
A: 2845 COUNTS PER MINUTE

Q: What about the “[32P]-phosphate incorporation into TCA-precipitable material” value ([6]; Sa (25 μM)) of the same compound?
A: 2506 COUNTS PER MINUTE

From patent US4937232A, “Inhibition of protein kinase C by long-chain bases” (priority 1988, dated 1990)
